# How the values were obtained:
# Assay type in all cases: biochemical
# UGT 1A10 = biological target: T1, UGT 1A10 (Homo sapiens, UniProt Q9HAW8); experiment: UGT activity: utilization of substrate by recombinant UGT 1A10 Supersomes; conditions: 2 hour incubation at 37° C., plus vs minus UDPGA, background corrected
# T1 construct: purchased BD Gentest; host or cells: insect cells (microsomes)
# T1 sequence (Q9HAW8 26-530): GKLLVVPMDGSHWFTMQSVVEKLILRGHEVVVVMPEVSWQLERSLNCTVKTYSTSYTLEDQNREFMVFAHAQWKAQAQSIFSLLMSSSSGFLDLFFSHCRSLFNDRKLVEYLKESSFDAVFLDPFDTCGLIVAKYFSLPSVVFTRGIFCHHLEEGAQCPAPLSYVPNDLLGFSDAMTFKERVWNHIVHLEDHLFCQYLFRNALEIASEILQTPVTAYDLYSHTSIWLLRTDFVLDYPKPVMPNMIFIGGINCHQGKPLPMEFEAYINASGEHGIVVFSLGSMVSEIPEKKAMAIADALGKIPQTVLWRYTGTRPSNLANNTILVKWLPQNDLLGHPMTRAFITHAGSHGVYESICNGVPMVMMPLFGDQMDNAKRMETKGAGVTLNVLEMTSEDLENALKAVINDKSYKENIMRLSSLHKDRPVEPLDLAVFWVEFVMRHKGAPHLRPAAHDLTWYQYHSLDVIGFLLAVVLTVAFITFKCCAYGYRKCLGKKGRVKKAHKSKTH
# Procedure: (§1) The invention includes a method of determining activity of the uridine 5′-diphospho-glucuronosyltransferase (UDP-glucuronosyltransferase, or UGT) family enzymes in vitro. Briefly, UGT enzymes from overexpressed insect microsomes (Supersomes™, BD Gentest™) or animal tissue microsomes (Xenotech, BD Gentest™) were incubated with a cyanobenzothiazole substrate of the invention and the cofactor UDP-glucuronic acid (UDPGA) at 37° C. in buffer at physiological pH containing MgCl2 and alamethicin (typically, 50 mM TES, pH 7.5, 8 mM MgCl2, 4 mM UDPGA (Sigma) and 25 μg/mL alamethicin (Sigma)). Following the UGT enzyme reaction, an equal volume of P450-Glo Luciferin Detection Reagent (Promega) containing 15-30 mM D-cysteine-HCl.H2O (Sigma) was added and the plate was mixed and incubated at room temperature, typically for 20-30 minutes. […]
# (§2) During this incubation, the cysteine reacts with the cyanobenzathiozole substrate to yield a D-luciferin derivative. […] Therefore, activity of the UGT enzyme can be measured by analyzing the difference (lower or no output) in relative light units (RLU) of a sample in which glucuronidation occurs compared to a sample that was run under the same conditions with no added UDPGA cofactor. […]
# (§3) Reactions were assembled in a white 96-well plate. […] After the incubation was completed, the plate was read on a Veritas™ luminometer (Turner BioSystems, Inc.; Sunnyvale, Calif.). […]
# UGT 1A6 = biological target: T2, UGT 1A6 (Homo sapiens, UniProt P19224); experiment: UGT activity: utilization of substrate by recombinant UGT 1A6 Supersomes; conditions: 2 hour incubation at 37° C., plus vs minus UDPGA
# T2 construct: purchased BD Gentest; host or cells: insect cells (microsomes)
# T2 sequence (P19224 27-532): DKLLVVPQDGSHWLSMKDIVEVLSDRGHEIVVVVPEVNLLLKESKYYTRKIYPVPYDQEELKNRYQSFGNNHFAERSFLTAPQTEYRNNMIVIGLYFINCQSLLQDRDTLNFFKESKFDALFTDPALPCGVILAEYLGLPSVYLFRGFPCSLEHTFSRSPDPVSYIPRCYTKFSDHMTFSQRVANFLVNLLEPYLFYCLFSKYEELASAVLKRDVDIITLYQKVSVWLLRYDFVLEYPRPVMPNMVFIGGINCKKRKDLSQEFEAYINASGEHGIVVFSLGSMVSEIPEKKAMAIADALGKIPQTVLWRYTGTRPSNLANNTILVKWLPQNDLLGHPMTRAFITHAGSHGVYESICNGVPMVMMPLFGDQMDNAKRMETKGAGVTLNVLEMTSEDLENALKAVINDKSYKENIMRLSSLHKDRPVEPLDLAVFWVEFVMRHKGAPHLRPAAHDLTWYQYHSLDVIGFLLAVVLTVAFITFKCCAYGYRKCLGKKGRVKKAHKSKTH
# Procedure: as §1, §2, §3
# UGT 1A3 = biological target: T3, UGT 1A3 (Homo sapiens, UniProt P35503); experiment: UGT activity: utilization of substrate by recombinant UGT 1A3 Supersomes; conditions: 2 hour incubation at 37° C., plus vs minus UDPGA
# T3 construct: purchased BD Gentest; host or cells: insect cells (microsomes)
# T3 sequence (P35503 29-534): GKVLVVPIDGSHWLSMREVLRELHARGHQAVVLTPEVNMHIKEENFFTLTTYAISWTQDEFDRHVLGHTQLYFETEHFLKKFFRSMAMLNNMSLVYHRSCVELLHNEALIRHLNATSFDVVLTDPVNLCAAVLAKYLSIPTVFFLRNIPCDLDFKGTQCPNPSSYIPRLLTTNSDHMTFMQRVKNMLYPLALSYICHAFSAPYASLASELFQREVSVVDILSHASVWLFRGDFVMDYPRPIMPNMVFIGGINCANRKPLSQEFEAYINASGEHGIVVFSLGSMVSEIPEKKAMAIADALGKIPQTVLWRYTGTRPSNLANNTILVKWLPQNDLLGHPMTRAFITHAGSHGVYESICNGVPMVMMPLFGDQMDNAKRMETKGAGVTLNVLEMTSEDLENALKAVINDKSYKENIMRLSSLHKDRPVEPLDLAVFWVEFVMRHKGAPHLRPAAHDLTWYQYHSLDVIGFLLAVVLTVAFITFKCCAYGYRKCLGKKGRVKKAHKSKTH
# Procedure: as §1, §2, §3
smiles,measurement,setting,value
Cc1cc(O)cc2sc(C#N)nc12 [compound 3138],% utilization by UGT 1A10,UGT 1A10,over 50%
same,utilization by UGT 1A6 (in words),UGT 1A6,detectable levels of utilization above background
same,utilization by UGT 1A3 (in words),UGT 1A3,detectable levels of utilization above background
Cc1cc(O)cc2sc(C3=NC(C(=O)O)CS3)nc12 (stereo not drawn) [compound 3478],% utilization by UGT 1A10,UGT 1A10,≤ 15%
same,utilization by UGT 1A6 (in words),UGT 1A6,only UGT 1A6 was able to utilize compound 3478 to any appreciable extent
same,utilization by UGT 1A3 (in words),UGT 1A3,only UGT 1A6 was able to utilize compound 3478 to any appreciable extent

# Source: patent publication US8551721B2, “Bioluminescent detection of cyanohydroxy benzothiazole compounds” (Promega Corporation, priority 2008, dated 2013)
